Measured values published in the OligoGym collection.
After the bases stand the sugars from the 5' end (letter, count) and the backbone: PS all phosphorothioate, else s phosphorothioate and o phosphodiester by linkage. Methylation of C is not given here. l = locked nucleic acid (LNA); d = 2'-deoxy (DNA)

Target: SNHG14
Conditions: ASO
[1] = Mouse Primary Neuronal Cell, 0.005 µM

Sequence	target mRNA inhibition (Human Neuronal Cell, 0.2 µM)	target mRNA inhibition (Human Neuronal Cell, 1 µM)	target mRNA inhibition (Human Neuronal Cell, 7.5 µM)	other results
GAACAACTTCTATCAT (sugars l2 d10 l4, PS)	16%	28%		
GAATTCTTTATTCCTCC (sugars l2 d11 l4, PS)	45%	41%		
GATAATTCCAAATCCC (sugars l2 d10 l4, PS)	16%	6%		
GATCATTCTCAACAATT (sugars l2 d1 l2 d6 l6, PS)			10%	
GCAACATTATTAACCACCT (sugars ldddddddddddldlddll, PS)			41%	
GCAACATTATTAACCACCT (sugars ldldldddddddlddddll, PS)			52%	
GCAACATTATTAACCACCT (sugars ldlldlddddddlddldll, PS)			44%	
GCACATTCTTTCTATAC (sugars l2 d1 l1 d11 l2, PS)			61%	
GCACATTCTTTCTATACC (sugars l1 d4 l1 d9 l3, PS)			59%	
GCACATTCTTTCTATACC (sugars l1 d4 l1 d10 l2, PS)			45%	
GCACATTCTTTCTATACC (sugars l1 d12 l1 d2 l2, PS)			47%	
GCACATTCTTTCTATACC (sugars ldldldddddddddddll, PS)			61%	
GCACATTCTTTCTATACCT (sugars ldldlddddddddddddll, PS)			57%	
GCCAATACCCACAAAC (sugars l3 d10 l3, PS)	11%	33%		
GCTCCATATTTAAATCC (sugars l4 d11 l2, PS)	20%	45%		
GCTTCATATTTCTCCA (sugars l2 d12 l2, PS)	57%			
GCTTCTACTTAAATAT (sugars l3 d10 l3, PS)	27%	21%		
GCTTTTAACCAGAGTG (sugars l4 d10 l2, PS)			72%	
GCTTTTAACCAGAGTGGC (sugars l1 d14 l3, PS)			63%	
GTCATCTAACTTCTTAC (sugars l3 d11 l3, PS)	45%	46%		
GTTACCTACATCTCAT (sugars l2 d12 l2, PS)	-6%	20%		target mRNA inhibition (Human Neuronal Cell, 5 µM): 31%; target mRNA inhibition [1]: 84.2%
GTTACCTACATCTCAT (sugars l3 d10 l3, PS)	3%	32%		target mRNA inhibition (Human Neuronal Cell, 5 µM): 18%; target mRNA inhibition [1]: 93.4%

Sequence	target mRNA inhibition (Human Neuronal Cell, 0.2 µM)	target mRNA inhibition (Human Neuronal Cell, 1 µM)	target mRNA inhibition (Human Neuronal Cell, 7.5 µM)	other results
GTTACCTACATCTCATA (sugars l2 d11 l4, PS)	-4%	10%		target mRNA inhibition (Human Neuronal Cell, 5 µM): 21%; target mRNA inhibition [1]: 92%
GTTCTACTATACTTTCCT (sugars l1 d15 l2, PS)			-8%	
GTTCTACTATACTTTCCTC (sugars l1 d14 l1 d1 l2, PS)			54%	
GTTTATACCCTTTCCAA (sugars l3 d11 l3, PS)	57%	63%		
GTTTATACCCTTTCCAAT (sugars l1 d12 l2 d1 l2, PS)			54%	
GTTTATACCCTTTCCAAT (sugars l2 d11 l1 d2 l2, PS)			67%	
GTTTCCATCTACTATTAA (sugars l1 d11 l2 d1 l3, PS)			52%	
GTTTCCATCTACTATTAAT (sugars ldddlddddddddlddlll, PS)			58%	
GTTTCCATCTACTATTAAT (sugars ldddldddddddldldlll, PS)			63%	
GTTTCCATCTACTATTAAT (sugars llddlddddddddddldll, PS)			59%	
TAAAATTATTTATACACCA (sugars ldlldldddddddllllll, PS)			39%	
TAAAATTATTTATACACCAT (sugars l2 d1 l2 d11 l4, PS)			49%	
TAAAATTATTTATACACCAT (sugars lddlddlddddddlldllll, PS)			2%	
TACACTTAATTATACTTCCA (sugars l1 d4 l1 d11 l3, PS)			53%	
TACACTTAATTATACTTCCA (sugars lddlddlddddddlddddll, PS)			61%	
TACATCTCATACTTGC (sugars l4 d10 l2, PS)				target mRNA inhibition [1]: 97%
TACCAATAGTTACCTT (sugars l2 d10 l4, PS)	30%	49%		
TACCTACATCTCATACTT (sugars l2 d14 l2, PS)	-10%	11%		target mRNA inhibition (Human Neuronal Cell, 5 µM): 6%
TACTAAACATACACATA (sugars l4 d11 l2, PS)	9%	25%		
TACTATACTTTCCTCT (sugars l2 d10 l4, PS)	59%	60%		
TACTCTGCAATACACC (sugars l1 d3 l1 d9 l2, PS)			52%	
TACTCTGCAATACACCA (sugars l1 d2 l2 d10 l2, PS)			56%	

Sequence	target mRNA inhibition (Human Neuronal Cell, 0.2 µM)	target mRNA inhibition (Human Neuronal Cell, 1 µM)	target mRNA inhibition (Human Neuronal Cell, 7.5 µM)	other results
TACTCTGCAATACACCA (sugars l1 d13 l3, PS)			60%	
TATACCTTTCTTTAACCCTT (sugars l2 d4 l1 d11 l2, PS)			51%	
TATACCTTTCTTTAACCCTT (sugars llddldldddddddddddll, PS)			60%	
TATCTTTCCATTTATTTCCA (sugars l1 d17 l2, PS)			-7%	
TATTCTTACCGTCTTT (sugars l2 d10 l4, PS)	60%	68%		
TATTGATTCAATTCCC (sugars l3 d10 l3, PS)	62%	68%		
TATTGATTCAATTCCCT (sugars ldddlddddddllldll, PS)			10%	
TATTGATTCAATTCCCT (sugars lddldddddddddldll, PS)			51%	
TATTGATTCAATTCCCT (sugars ldldlddddddddldll, PS)			60%	
TATTTATACACCATCAT (sugars l3 d11 l3, PS)	59%	63%		
TCACTGCCATCAATAC (sugars l4 d10 l2, PS)	42%	45%		
TCAGCTTTTAACCAGAGT (sugars l2 d13 l3, PS)			79%	
TCAGCTTTTAACCAGAGTG (sugars l2 d14 l3, PS)			76%	
TCAGCTTTTAACCAGAGTGG (sugars l2 d16 l2, PS)			70%	
TCATACTTGCTTTAAT (sugars l4 d10 l2, PS)	13%	38%		
TCATTTCATATTACTAAC (sugars l4 d12 l2, PS)	13%	32%		
TCCAGCATATTATATA (sugars l4 d10 l2, PS)	24%	10%		
TCCTATATTCTCTTAAA (sugars l4 d11 l2, PS)	47%	66%		
TCTCTACAACAGTCCCA (sugars l2 d13 l2, PS)	44%	55%		
TCTGTATACACCATCCC (sugars l2 d1 l1 d11 l2, PS)			56%	
TCTTACCAATAGTTACC (sugars l4 d11 l2, PS)	45%	55%		
TCTTACTCTGACTTTCC (sugars l2 d12 l3, PS)	68%	71%		

Sequence	target mRNA inhibition (Human Neuronal Cell, 0.2 µM)	target mRNA inhibition (Human Neuronal Cell, 1 µM)	target mRNA inhibition (Human Neuronal Cell, 7.5 µM)	other results
TCTTTCCATTTATTTCCAT (sugars l2 d14 l3, PS)			43%	
TCTTTCCATTTATTTCCAT (sugars lddldldddddddldldll, PS)			37%	
TCTTTCCATTTATTTCCATT (sugars l2 d13 l1 d1 l3, PS)			42%	
TGAAAATCTCAACTACCAT (sugars l4 d12 l3, PS)			49%	
TGAAAATCTCAACTACCAT (sugars lddddlddddddldlldll, PS)			42%	
TGAAAATCTCAACTACCAT (sugars ldldldddddddldddlll, PS)			50%	
TGAAAATCTCAACTACCAT (sugars llldllddddddlddddll, PS)			55%	
TGAAACTATTACTCCT (sugars l3 d10 l3, PS)	44%	61%		
TGACATAACCATATAC (sugars l3 d10 l3, PS)	20%	30%		
TGCTACCATCATTACCT (sugars l2 d13 l2, PS)	12%	19%		
TGTACTTTCCTTTACCA (sugars l2 d13 l2, PS)	33%	59%		
TGTCATCTAACTTCTTA (sugars l4 d11 l2, PS)	45%	38%		
TGTTTATACCCTTTCCA (sugars l3 d12 l2, PS)	35%	50%		
TGTTTATACCCTTTCCAA (sugars lddddlddddddldldll, PS)			47%	
TGTTTCCATCTACTATTA (sugars l1 d4 l1 d9 l3, PS)			61%	
TGTTTCCATCTACTATTA (sugars l1 d4 l1 d10 l2, PS)			60%	
TTACACTTAATTATACTT (sugars l3 d12 l3, PS)	14%	22%		
TTACACTTAATTATACTTCC (sugars l1 d5 l1 d9 l4, PS)			61%	
TTACACTTAATTATACTTCC (sugars l3 d1 l1 d12 l3, PS)			70%	
TTACACTTAATTATACTTCC (sugars ldldddlddddddddlddll, PS)			64%	
TTACCAATAGTTACCT (sugars l3 d10 l3, PS)	33%	48%		
TTACCTACATCTCATAC (sugars l3 d11 l3, PS)	0%	5%		target mRNA inhibition (Human Neuronal Cell, 5 µM): 21%; target mRNA inhibition [1]: 91.3%
